We go through six compounds from publication PMC8876975, “EGFR and COX-2 Dual Inhibitor: The Design, Synthesis, and Biological Evaluation of Novel Chalcones” (Molecules, 2022).

Where two headings read alike, the source gives them in different places.

Data set [1] concerns pancreatic cancer (PaCa-2). Briefly: MTT cytotoxicity assay, PaCa-2. In kind it is cell-based. Particulars: PaCa-2, MTT, 72 h; read-out: Antiproliferative Activity IC50 ± SEM, PaCa-2.
The test system of the next data set is IL-6. Briefly: ELISA, LPS-induced IL-6 release in RAW264.7 macrophages. Type of data set: cell-based, mouse. Particulars: for inhibition at 10 µM: Mus musculus, RAW264.7; for inhibition at 10 µM / % Inhibition of IL-6: RAW 264.7, compound 10 µM for 2 h, then LPS 0.5 µg/mL for 22 h; for Relative Amount of LPS (IL-6): RAW 264.7, compound 10 µM, IL-6 relative to LPS control = 100. In general terms: ELISA stands for enzyme-linked immunosorbent assay.

Data set [2] concerns pancreatic ductal cancer (Panc-1). Briefly: MTT cytotoxicity assay, Panc-1. Particulars: Panc-1, MTT, 72 h, read-out: Antiproliferative Activity IC50 ± SEM, Panc-1. In kind it is cell-based. On the technique in general: Formazan colour is commonly taken as a measure of viable cells.
The target of a further data set is T1, human recombinant COX-2 (Homo sapiens, UniProt P35354).
T1 construct: purchased Cayman Chemicals
T1 sequence (P35354 18-604): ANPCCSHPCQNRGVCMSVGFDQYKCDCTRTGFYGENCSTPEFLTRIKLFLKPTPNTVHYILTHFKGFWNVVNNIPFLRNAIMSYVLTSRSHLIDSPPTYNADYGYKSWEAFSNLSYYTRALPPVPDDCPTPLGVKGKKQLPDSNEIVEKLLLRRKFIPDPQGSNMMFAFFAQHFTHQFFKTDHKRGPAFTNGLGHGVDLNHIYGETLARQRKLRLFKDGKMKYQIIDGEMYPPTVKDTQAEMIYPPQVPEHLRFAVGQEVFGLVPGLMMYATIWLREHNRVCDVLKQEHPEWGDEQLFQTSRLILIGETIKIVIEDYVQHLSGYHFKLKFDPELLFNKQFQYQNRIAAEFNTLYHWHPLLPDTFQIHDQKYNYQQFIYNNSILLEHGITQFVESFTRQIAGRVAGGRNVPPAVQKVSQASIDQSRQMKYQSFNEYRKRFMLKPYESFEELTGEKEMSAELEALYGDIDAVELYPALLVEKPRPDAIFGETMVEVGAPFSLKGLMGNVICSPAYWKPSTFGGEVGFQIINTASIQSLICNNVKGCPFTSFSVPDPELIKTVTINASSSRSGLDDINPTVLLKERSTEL
Briefly: Cyclooxygenase assay (PGE2 quantification), COX-2. In kind it is biochemical. Particulars: mean ± SD; n = 3.

Another data set relates to lung cancer (H-460). Briefly: MTT cytotoxicity assay, H-460. Type of data set: cell-based. Particulars: H-460, MTT, 72 h, read-out: Antiproliferative Activity IC50 ± SEM, H-460.
Data set [3] concerns the target T2, human recombinant sPLA2-V (Homo sapiens, UniProt P39877).
T2 sequence (P39877 21-138): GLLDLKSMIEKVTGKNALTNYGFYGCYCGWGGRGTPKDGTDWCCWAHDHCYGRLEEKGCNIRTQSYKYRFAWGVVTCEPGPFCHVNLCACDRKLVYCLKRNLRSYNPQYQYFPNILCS
Briefly: Secretory PLA2-V activity assay (Ellman's photometric method). (In general: DTNB colorimetry detects thiols as they appear.)

Data set [4] relates to human malignant melanoma (A375). The experiment in a line: MTT cytotoxicity assay, A375. In kind it is cell-based. Particulars: read-out: Antiproliferative Activity IC50 ± SEM, A375.
The target in the next data set is T3, EGFR (Homo sapiens, UniProt P00533).
T3 construct: purchased PBS Bioscience (so in the source)
The experiment in a line: EGFR kinase inhibition assay (EGFR Kinase Assay Kit). Type of data set: biochemical. Particulars: triplicates; read-out: EGFR Inhibition IC50 ± SEM.

For data set [5], the system named is human colon cancer (HT-29). Briefly: MTT cytotoxicity assay, HT-29. Particulars: HT-29, MTT, 72 h, read-out: Antiproliferative Activity IC50 ± SEM, HT-29. In kind it is cell-based.
A short description of data set [6]: Cell viability % (MTT, normal cell line). Particulars: human, MRC5 normal fetal lung fibroblast cells.
The subject of the next data set is TNF-α. The experiment in a line: ELISA, LPS-induced TNF-α release in RAW264.7 macrophages. In kind it is cell-based, mouse. Particulars: for inhibition at 10 µM: Mus musculus, RAW264.7; for inhibition at 10 µM / % Inhibition of TNF-α: RAW 264.7, compound 10 µM for 2 h, then LPS 0.5 µg/mL for 22 h; for Relative Amount of LPS (TNF-α): RAW 264.7, compound 10 µM, TNF-α relative to LPS control = 100.

In a further data set the target is T4, Sheep-derived COX-1 (Ovis aries, UniProt P05979).
T4 sequence (P05979 25-600): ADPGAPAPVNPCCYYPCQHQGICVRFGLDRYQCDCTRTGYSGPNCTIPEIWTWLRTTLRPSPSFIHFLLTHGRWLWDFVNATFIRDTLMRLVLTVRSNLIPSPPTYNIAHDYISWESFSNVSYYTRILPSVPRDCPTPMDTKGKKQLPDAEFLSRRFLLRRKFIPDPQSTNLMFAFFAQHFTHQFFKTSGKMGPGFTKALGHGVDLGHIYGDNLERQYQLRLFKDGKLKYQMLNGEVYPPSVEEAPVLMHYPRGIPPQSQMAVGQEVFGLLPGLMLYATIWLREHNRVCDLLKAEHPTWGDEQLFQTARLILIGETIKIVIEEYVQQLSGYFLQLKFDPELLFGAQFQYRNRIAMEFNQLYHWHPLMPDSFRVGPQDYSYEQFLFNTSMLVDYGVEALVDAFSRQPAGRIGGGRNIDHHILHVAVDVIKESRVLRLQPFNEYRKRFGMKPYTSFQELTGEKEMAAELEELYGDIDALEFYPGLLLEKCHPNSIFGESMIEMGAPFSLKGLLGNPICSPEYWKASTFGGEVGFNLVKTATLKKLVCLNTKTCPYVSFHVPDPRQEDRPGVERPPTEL
Briefly: Cyclooxygenase assay (PGE2 quantification), COX-1.

The test system of data set [7] is normal human fetal lung fibroblast cell line, MRC5. Briefly: Cell viability % (MTT, normal cell line). Particulars: cell line and concentration not named in Table 1; supplement names MRC5 as normal cell line.
For data set [8] the test system is unchanged.
Where [9] appears, read: read-out: sPLA2-V IC50, mean ± SD, n = 3.
[10] abbreviates: read-out: COX-1 IC50, mean ± SD, n = 3.

Take `CC(=O)c1cccc(/N=N/c2ccc(O)c(C(=O)O)c2)c1` [Compound A3, (E)-5-((3-Acetylphenyl)diazenyl)-2-hydroxybenzoic acid]: the concentration for half-maximal inhibition (IC50) in data set [1] was 2400 ± 1500 nM; in data set [2] (Homo sapiens) it was 2200 ± 900 nM; at human recombinant COX-2, 2400 ± 800 nM; with lung cancer (H-460) (Homo sapiens, NCI-H460) it was 1800 ± 400 nM; in data set [3] it was 2140 ± 940 nM; in data set [4] (Homo sapiens, A-375, 72 h) it was 4000 ± 1500 nM. In addition, the half-inhibitory concentration (IC50) at EGFR amounted to 4300 ± 700 nM; in data set [5] (Homo sapiens), 1800 ± 500 nM; against Sheep-derived COX-1, 210 ± 70 nM. The inhibition at 10 µM in the data set with IL-6 is 72%; with TNF-α, 79%. Further, the “Relative Amount of LPS (IL-6)” value in the data set on IL-6 is 28. Also, the viability at 72 h in data set [6] stood at 79.6 ± 4.5%. Besides, the “Relative Amount of LPS (TNF-α)” value in the data set with TNF-α was 21.

With `CC(=O)c1cccc(/N=N/c2ccc(O)c3ccccc23)c1` [Compound A4, (E)-1-(3-((4-Hydroxynaphthalen-1-yl)diazenyl)phenyl)ethan-1-one], the IC50 in data set [1] was determined as 2000 ± 600 nM; in [2] (Homo sapiens) it was 2000 ± 400 nM; on human recombinant COX-2, 16800 ± 2430 nM; in the data set with lung cancer (H-460) (Homo sapiens, NCI-H460) it was 3400 ± 1000 nM; in data set [3] it was 14100 ± 1520 nM; in [4] (Homo sapiens, A-375, 72 h) it was 4400 ± 1900 nM. In addition, the results for the IC50 (on EGFR; in data set [5] (Homo sapiens); against Sheep-derived COX-1) were 3200 ± 800 nM, 2700 ± 600 nM and 11100 ± 1050 nM, respectively. For the same compound, the inhibition at 10 µM came out at 46% in the data set on IL-6 and 49% in the data set with TNF-α. In the data set with IL-6, the “Relative Amount of LPS (IL-6)” value is 54. The compound also returned a viability at 72 h in data set [6] of 87.4 ± 1.7%. Further, the “Relative Amount of LPS (TNF-α)” value with TNF-α was 51.

With `O=C(/C=C/c1ccc(F)cc1)c1cccc(/N=N\c2ccc(O)c(C(=O)O)c2)c1` [Compound C9, 5. -((Z)-(3-((E)-3-(4-Fluorophenyl)acryloyl)phenyl)diazenyl)-2-hydroxybenzoic acid], the half-inhibitory concentration (IC50) in data set [1] worked out at 2100 ± 300 nM; in data set [2] (Homo sapiens), 1800 ± 400 nM; at human recombinant COX-2, 1270 ± 300 nM; in the data set with lung cancer (H-460) (Homo sapiens, NCI-H460) it was 1200 ± 200 nM; in data set [3] it was 2740 ± 1240 nM; in data set [4] (Homo sapiens, A-375, 72 h) it was 3200 ± 1100 nM. Moreover, the IC50 is 800 ± 300 nM on EGFR, 1200 ± 300 nM in data set [5] (Homo sapiens) and 8570 ± 1890 nM against Sheep-derived COX-1. The inhibition at 10 µM with IL-6 stood at 77%; with TNF-α it was 74%. Besides, the “Relative Amount of LPS (IL-6)” value in the data set on IL-6 is given as 23. In data set [6], this compound yielded a viability at 72 h of 90.2 ± 4.1%. Further, the “Relative Amount of LPS (TNF-α)” value with TNF-α was 26.

As to `CN(C)c1ccc(/C=C/C(=O)c2ccc(/N=N/c3ccc(O)c(C(=O)O)c3)cc2)cc1` [Compound C15, 5. -((E)-(4-((E)-3-(4-(Dimethylamino)phenyl)acryloyl)phenyl)diazenyl)-2-hydroxy benzoic acid], the IC50 amounted to 2300 ± 400 nM in data set [1]; 1900 ± 100 nM in data set [2]; 950 ± 200 nM on human recombinant COX-2; 1700 ± 200 nM in the data set on lung cancer (H-460); 2010 ± 1110 nM in data set [3] (setting [9]); 3400 ± 1800 nM in [4] (72 h). In addition, the IC50 on EGFR stood at 2800 ± 500 nM; in [5], 1600 ± 200 nM; on Sheep-derived COX-1 (setting [10]), 1900 ± 230 nM. For the same compound, in the data set on IL-6, the “% Inhibition of IL-6” value amounted to 78%. For the same compound, the “Relative Amount of LPS (IL-6)” value in the data set on IL-6 worked out at 22. In addition, in data set [7], the “Cell Viability %” value is 87.3 ± 2.1%. In addition, the “% Inhibition of TNF-α” value in the data set with TNF-α is recorded as 81%. The “Relative Amount of LPS (TNF-α)” value in the data set with TNF-α amounted to 19.

Consider `CN(C)c1ccc(/C=C/C(=O)c2cccc(/N=N/c3ccc(O)c4ccccc34)c2)cc1` [Compound C16, (E)-3-(4-(Dimethylamino)phenyl)-1-(3-((E)-(4-hydroxynaphthalen-1-yl)diazenyl)phenyl) prop-2-en-1-one], for which the IC50 turned out to be 1900 ± 500 nM in data set [1]; 1800 ± 500 nM in data set [2] (Homo sapiens); 6890 ± 800 nM at human recombinant COX-2; 2900 ± 1000 nM in the data set with lung cancer (H-460) (Homo sapiens, NCI-H460); 2510 ± 1050 nM in [3]; 2800 ± 1000 nM in data set [4] (Homo sapiens, A-375, 72 h). For the same compound, the 50% inhibitory concentration (IC50) on EGFR came to 2900 ± 400 nM; in [5] (Homo sapiens), 1800 ± 400 nM; on Sheep-derived COX-1 it was 7100 ± 1290 nM. For the same compound, the inhibition at 10 µM turned out to be 69% in the data set with IL-6 and 72% with TNF-α. Besides, the “Relative Amount of LPS (IL-6)” value in the data set with IL-6 stood at 31. Also, in data set [6], the viability at 72 h stood at 92.5 ± 2%. Further, in the data set on TNF-α, the “Relative Amount of LPS (TNF-α)” value was found to be 28.

Regarding “(E)-3-(4-Fluorophenyl)-1-(4-((E)-(4-hydroxynaphthalen-1-yl)diazenyl)phenyl) prop-2-en-1-one [Compound C10]”, the IC50 is 900 ± 400 nM in data set [1]; 1600 ± 500 nM in [2]; 1880 ± 400 nM at human recombinant COX-2; 1200 ± 100 nM in the data set on lung cancer (H-460); 3140 ± 640 nM in data set [3] (setting [9]); 2600 ± 1000 nM in data set [4] (72 h). Besides, the IC50 on EGFR turned out to be 1100 nM; in [5] it was 1100 ± 200 nM; at Sheep-derived COX-1 (setting [10]) it was 7370 ± 1440 nM. Besides, the “% Inhibition of IL-6” value with IL-6 is 77%. Further, the “Relative Amount of LPS (IL-6)” value in the data set on IL-6 stood at 23. For the same compound, the “% Inhibition of TNF-α” value in the data set with TNF-α worked out at 76%. In addition, the “Relative Amount of LPS (TNF-α)” value with TNF-α amounted to 24. In addition, the “Cell Viability %” value in data set [8] is listed as 91.2 ± 2.9%.

A word on the IC50: it is the concentration needed to halve the response being measured. The inhibition is the drop in the measured response relative to a control, in per cent. A high value points to strong suppression. As a reminder, the viability is the share of living cells, or the viability signal relative to a control. A low value points to a greater loss of cells.
